Experimental data as given in patent publication US8507219B2, “Method of treating inflammation with statins” (MUSC Foundation for Research Development, priority 1997, dated 2013).

Assays:
[1] = tested on: rat primary oligodendrocytes; test: Apoptosis (DNA fragmentation, laddering) in rat primary oligodendrocytes; type: cell-based; settings: 10 mM NAC 1 h; diamide 0.5 mM, TNF-α 50 ng/ml or C2-ceramide; 12 h
Procedure: Detection of DNA fragmentation Cells (1×10^6) were pelleted in an eppendorf tube by centrifugation at 1,000 rpm for 5 min, washed with PBS (pH 7.4), resuspended gently in 50 μl of a lysis buffer [200 mM NaCl, 10 mM Tris-HCl (pH 8.0), 40 mM EDTA (pH 8.0), 0.5% SDS, 400 ng RNase A/μl] and incubated at 37° C. for 1 h. The lysate received 200 μl of the digestion buffer [200 mM NaCl, 10 mM Tris-HCl (pH 8.0), 0.5% SDS, 125 ng proteinase K/μl]. The contents were mixed by inversion several times and then incubated at 50° C. for 2 h. An equal volume of a mixture phenol (pH 8.0), chloroform and isoamyl alcohol (25:24:1, v/v) was added, gently mixed for 10 min, and stored at room temperature for 2 min. […] The gel was stained with ethidium bromide and DNA-intercalated ethidium fluorescence was photographed on Polaroid film 665 (P/N) using an orange filter. […]
Detection of DNA Fragmentation Cells (1×10^6) were pelleted in an Eppendorf tube by centrifugation at 1000 rpm for 5 min, washed with phosphate-buffered saline, pH 7.4, resuspended gently in 50 μl of a lysis buffer (200 mM NaCl, 10 mM Tris-HCl, pH 8.0, 40 mM EDTA, pH 8.0, 0.5% SDS, 400 ng of RNase A/μl), and incubated at 37° C. for 1 h. […] The gel was stained with ethidium bromide, and DNA-intercalated ethidium fluorescence was photographed on Polaroid film 665 (P/N) using an orange filter. […]

[2] = tested on: ceramide production in rat primary astrocytes; test: Degradation of sphingomyelin to ceramide (DAG kinase assay, HPTLC) in rat primary astrocytes; type: cell-based
Procedure: Lipid extraction Approximately 1.0×10^6 cells were exposed to different cytokines in the presence or absence of antioxidants for different periods and lipids were extracted according to the methods described by Welsh (1996).
Quantification of sphingomyelin by HPTLC and densitometry Sphingomyelin was separated from total lipid extracts by HPTLC (LPK-plates from Whatman Labsales, USA) as described (Ganser et al., 1988) for phospholipids with the modification, that the plate was overrun for 30 min during its development and was dried overnight in vacuum desicator. Sphingomyelin was quantitated by densitometric scanning using Imaging Densitometer (Model GS-670; Bio-Rad, USA) and software provided with the instrument by the manufacturer.
Quantification of ceramide levels by diacylglycerol kinase assay Ceramide content was quantified essentially according to Priess et al. using diacylglycerol (DAG) kinase and [γ-^32P]ATP (Priess et al., 1986). Briefly, dried lipids were solubilized in 20 μl of an octyl β-D-glucoside/cardiolipin solution (7.5% octyl β-D-glucoside, 5 mM cardiolipin in 1 mM DTPA) by sonication in a sonicator bath. […] The labeled ceramide 1-phosphate was resolved with a solvent system consisting of methyl acetate: n-propanol:chloroform:methanol:0.25% KCl in water:acetic-acid (100:100:100:40:36:2). A standard sample of ceramide was phosphorylated under identical conditions and developed in parallel. […] Quantification of ceramide 1-phosphate was carried out by autoradiography and densitometric scanning using Imaging Densitometer (Model GS-670; Bio-Rad, USA). Values are expressed either as arbitrary units (absorbance) or as percent change.
Lipid Extraction Approximately 1.0×10^6 cells were exposed to different cytokines in the presence or absence of antioxidants for different periods, and lipids were extracted according to the methods described by Welsh (1996).
Quantification of Sphingomyelin by High Performance TLC and Densitometry Sphingomyelin was separated from total lipid extracts by high performance TLC (LHPK plates from Whatman) as described by Ganser et al. (1988) for phospholipids with the following modification: the plate was overrun for 30 min during its development and was dried overnight in vacuum desiccator. Sphingomyelin was quantitated by densitometric scanning using Imaging Densitometer (model GS-670; Bio-Rad), and software was provided with the instrument by the manufacturer.
Quantification of Ceramide Levels by Diacylglycerol Kinase Assay Ceramide content was quantified essentially according to Priess et al. (1986) using diacylglycerol (DAG) kinase and [γ-^32P]ATP. Briefly, dried lipids were solubilized in 20 μl of an octyl β-D-glucoside/cardiolipin solution (7.5% octyl β-D-glucoside, 5 mM cardiolipin in 1 mM DTPA) by sonication in a sonicator bath. […] The labeled ceramide-1-phosphate was resolved with a solvent system consisting of methyl acetate:n-propyl alcohol:chloroform:methanol, 0.25% KCl in water:acetic acid (100:100:100:40:36:2). A standard sample of ceramide was phosphorylated under identical conditions and developed in parallel. […] Quantification of ceramide-1-phosphate was carried out by autoradiography and densitometric scanning using Imaging Densitometer (model GS-670; Bio-Rad). Values are expressed either as arbitrary units (absorbance) or as percent change.

[3] = tested on: intracellular GSH in rat primary astrocytes; test: Intracellular GSH / GSSG in rat primary astrocytes; type: cell-based; settings: 10 mM NAC 1 h; TNF-α or IL-1β 50 ng/ml; diamide 0.5 mM
Procedure: Measurement of reduced glutathione (GSH) concentration in rat primary astrocytes Concentration of intracellular GSH was measured using a colorimetric assay kit for GSH from RandD, USA. Briefly, 2×10^6 cells were homogenized in 500 μl of ice-cold 5% metaphosphoric acid and centrifuged at 3000 g for 10 min. Supernatants were used to assay GSH using 4-chloro-1-methyl-7-trifluoromethyl-quinolinium methylsulfate and 30% NaOH at 400 nm.
Measurement of GSH (Reduced Glutathione) and GSSG Oxidized Glutathione Concentration of intracellular reduced GSH was measured using a calorimetric assay kit for GSH from R & D Systems. Briefly, 2×10^6 cells were homogenized in 500 μl of ice-cold 5% metaphosphoric acid and centrifuged at 3000×g for 10 min. Supernatants were used to assay GSH using 4-chloro-1-methyl-7-trifluoromethylquinolinium methylsulfate and 30% NaOH at 400 nm. Concentration of GSSG was determined according to the method of Griffith (1980) after derivatization with 2-vinylpyridine for 30 min at room temperature.

[4] = X-ALD patients; cited from earlier work

SMILES | ceramide formation and DNA fragmentation / apoptosis [1] | increase in ceramide production [2] | intracellular level of GSH / GSSG [3] | reduction of VLCFA [4] [%]
CN(C)C(=O)/N=N/C(=O)N(C)C [diamide] | induced internucleosomal DNA fragmentation | about 7 fold | increased the intracellular level of GSSG | –
CCCCCCCC/C=C\CCCCCCCC(=O)OCC(COC(=O)CCCCCCC/C=C\CCCCCCCC)OC(=O)CCCCCCC/C=C\CCCCCCCC [trioleate] | – | – | – | 50
